In patent US6806278B2, “Amino-tetralin derivatives as muscarinic receptor antagonists” (Syntex (U.S.A.) LLC, priority 2001, dated 2004):

Legend:
[1] = molecular target: T1, recombinant human muscarinic receptor m3 (Homo sapiens, UniProt P20309); experiment: Radioligand binding studies, [3H]N-methyl scopolamine, m3; settings: CHO cell membranes, [3H]N-methyl scopolamine 0.4 nM; pIC50 converted to pKi by Cheng-Prusoff
T1 construct: expressed in transfected cells; host or cells: Chinese hamster ovary (CHO) cells, membrane preparation
T1 sequence (P20309 whole entry): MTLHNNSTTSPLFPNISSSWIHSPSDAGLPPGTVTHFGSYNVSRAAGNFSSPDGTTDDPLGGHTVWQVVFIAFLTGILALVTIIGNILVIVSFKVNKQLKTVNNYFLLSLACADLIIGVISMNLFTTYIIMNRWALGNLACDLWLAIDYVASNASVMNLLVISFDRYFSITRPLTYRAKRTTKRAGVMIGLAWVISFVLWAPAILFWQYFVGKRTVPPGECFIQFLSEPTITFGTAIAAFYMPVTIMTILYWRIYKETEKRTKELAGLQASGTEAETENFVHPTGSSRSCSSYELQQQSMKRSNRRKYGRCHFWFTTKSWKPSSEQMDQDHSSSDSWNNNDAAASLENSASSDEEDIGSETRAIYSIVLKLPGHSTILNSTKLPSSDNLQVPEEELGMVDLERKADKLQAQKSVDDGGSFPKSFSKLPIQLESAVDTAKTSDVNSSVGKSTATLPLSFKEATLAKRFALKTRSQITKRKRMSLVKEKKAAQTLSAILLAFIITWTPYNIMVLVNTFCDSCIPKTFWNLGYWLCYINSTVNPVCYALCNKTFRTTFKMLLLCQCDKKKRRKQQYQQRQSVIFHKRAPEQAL
Method: (§1) The compounds of this invention are muscarinic receptor antagonists. The muscarinic receptor affinity of test compounds can be determined by an in vitro receptor binding assay which utilizes a cell membrane preparation from the Chinese hamster ovary cells expressing the recombinant human muscarinic receptors (M1-M5), and is described in more detail in Example 12.
(§2) The inhibitory activity of compounds of this invention in vitro was determined using a modification of the method described in Hegde, S. S. et al. 1997 Br. J. Pharmacol., 120, 1409-1418.
(§3) Cell membranes from Chinese hamster ovary cells expressing the recombinant human muscarinic receptors (m1-m5) were employed. The assays were conducted with the radioligand [^3H]N-methyl scopolamine (0.4 nM, specific activity 84 Ci·mmol^−1) in a final volume of 0.25 mL Tris-Krebs buffer. Non-specific binding was defined with 1 μM atropine. Assays were performed using scintillation proximity assay technology. Competition-displacement curves were generated using 10 concentrations of test compounds and were analyzed by iterative curve fitting to a four parameter logistic equation. pIC50 values (-log of the IC50) were converted to pKi values using the Cheng-Prusoff equation.

[2] = molecular target: T2, recombinant human muscarinic receptor m2 (Homo sapiens, UniProt P08172); experiment: Radioligand binding studies, [3H]N-methyl scopolamine, m2; settings: CHO cell membranes, [3H]N-methyl scopolamine 0.4 nM; pIC50 converted to pKi by Cheng-Prusoff
T2 construct: expressed in transfected cells; host or cells: Chinese hamster ovary (CHO) cells, membrane preparation
T2 sequence (P08172 1-466): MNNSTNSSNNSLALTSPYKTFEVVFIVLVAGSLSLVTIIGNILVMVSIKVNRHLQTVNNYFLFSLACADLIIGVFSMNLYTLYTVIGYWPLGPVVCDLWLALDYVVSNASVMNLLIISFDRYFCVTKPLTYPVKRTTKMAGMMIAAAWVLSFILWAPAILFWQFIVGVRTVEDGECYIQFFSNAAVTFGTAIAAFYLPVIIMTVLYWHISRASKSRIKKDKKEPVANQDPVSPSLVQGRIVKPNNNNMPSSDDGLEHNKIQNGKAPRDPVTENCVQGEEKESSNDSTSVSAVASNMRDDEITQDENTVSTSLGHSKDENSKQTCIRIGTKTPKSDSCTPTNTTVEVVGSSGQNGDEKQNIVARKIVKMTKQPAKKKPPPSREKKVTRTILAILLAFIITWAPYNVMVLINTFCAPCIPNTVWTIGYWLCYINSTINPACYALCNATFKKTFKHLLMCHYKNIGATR
Method: as §1, §2, §3

| SMILES | Ki [1] [nM] | Ki [2] [nM] |
| --- | --- | --- |
| CCCN(C1CCN(C(=O)c2ccco2)CC1)C1CCc2ccc(OC)cc2C1 (centres unmarked) [Cpd 4, furan-2-yl-{4-[(7-methoxy-1,2,3,4-tetrahydro-naphthalen-2-yl)-propyl-amino]-piperidin-1-yl}-methanone] | 51.3 | 26.3 |
| CCCN(C1CCN(C(=O)N2CCOCC2)CC1)C1CCc2ccc(OC)cc2C1 (centres unmarked) [Cpd 1, {4-[(7-methoxy-1,2,3,4-tetrahydro-naphthalen-2-yl)-propyl-amino]-piperidin-1-yl}-morpholin-4-yl-methanone] | 1.48 | 2.69 |
| CCCN(C1CCN(C(C)=O)CC1)C1CCc2ccc(OC)cc2C1 (centres unmarked) [Cpd 15, 1-{4-[(7-methoxy-1,2,3,4-tetrahydro-naphthalen-2-yl)-propyl-amino]-piperidin-1-yl}ethanone] | 6.76 | 4.27 |
| CCCN(C1CCN(C(=O)c2ccccc2C)CC1)C1CCc2ccc(OC)cc2C1 (centres unmarked) [Cpd 3, {4-[(7-methoxy-1,2,3,4-tetrahydro-naphthalen-2-yl)-propyl-amino]-piperidin-1-yl}o-tolyl-methanone] | 49 | 41.7 |
| CCCN(C1CCN(C(=O)C2CCNCC2)CC1)C1CCc2ccc(Br)cc2C1 (centres unmarked) [Cpd 35, {4-[(7-bromo-1,2,3,4-tetrahydro-naphthalen-2-yl)-propyl-amino]-piperidin-1-yl}-piperidin-4-yl-methanone] | 0.891 | 1.82 |
| CCCN(C1CCN(C(=O)N2CCN(C)CC2)CC1)C1CCc2ccc(OC)cc2C1 (centres unmarked) [Cpd 23, {4-[(7-methoxy-1,2,3,4-tetrahydro-naphthalen-2-yl)-propyl-amino]-piperidin-1-yl}-(4-methyl-piperazin-1-yl)-methanone] | 2.75 | 0.575 |
| CCCN(C1CCN(C(=O)C2CCNCC2)CC1)[C@@H]1CCc2ccc(OC)cc2C1 [Cpd 39, {4-[((R)-7-methoxy-1,2,3,4-tetrahydro-naphthalen-2-yl)-propyl-amino]-piperidin-1-yl}-piperidin-4-yl-methanone] | 0.955 | 2.19 |
| CCCN(C1CCN(C(=O)N2CCNCC2)CC1)C1CCc2ccc(OC)cc2C1 (centres unmarked) [Cpd 16, {4-[(7-methoxy-1,2,3,4-tetrahydro-naphthalen-2-yl)-propyl-amino]-piperidin-1-yl}-piperazin-1-yl-methanone] | 1.58 | 0.977 |
| CCCN(C1CCN(C(=O)C2CCNCC2)CC1)C1CCc2cc(OC)c(OC)cc2C1 (centres unmarked) [Cpd 28, {4-[(6,7-dimethoxy-1,2,3,4-tetrahydro-naphthalen-2-yl)-propyl-amino]-piperidin-1-yl}-piperidin-4-yl-methanone] | 11.5 | 5.01 |
| CCCN(C1CCN(C(=O)N(CC)CC)CC1)C1CCc2ccc(OC)cc2C1 (centres unmarked) [Cpd 5, 4-[(7-methoxy-1,2,3,4-tetrahydro-naphthalen-2-yl)-propyl-amino]-piperidine-1-carboxylic acid diethylamide] | 5.89 | 3.16 |
